This is an account of results in US20080318269A1, “Devices and Methods for the Analysis of Biofilm” (priority 2005, published 2008).

The test system of assay [1] is biofilm cells of C. albicans. Description: Minimum biofilm eradication concentration assay, C. albicans. The settings on record: 24 hours exposure. The format is cell-based, Candida albicans. How it is done: Biofilm formation and measurement of antimicrobial sensitivity of Candida and Aspergillus biofilms were performed using an assembly of the present invention. The device features a microtliter plate lid with 96 pegs or projections distributed on the lid. Each peg provided the surface for microorganism to adhere, colonize and form a uniform biofilm. The pegs fit precisely into the wells of a standard 96-well microtiter plate. The lid was used in conjunction with a base having special troughs for growing, washing, and incubating fungi. Colonies of Candida sp. were picked from 24 hour cultures on Sabouraud Dextrose agar (SDA) (BBL Microbiological Systems, Cockeysville, Md.) and placed into Mueller-Hinton Broth (MHB) (Difco Laboratories, Detroit Mich.) such that the suspension matched a McFarland standard of 1.0. This suspension was then diluted 1:30 in MHB, and 25 ml were pipetted into the trough chamber of the base. […] It was determined in preliminary experiments that C. glabrata required 10% CO2 atmosphere for biofilms to form.
Biofilm susceptibility testing uses the pegged lid of the assembly, now containing biofilms formed after rocking in the tray for 24 hour. […] The turbidity of the wells that contained the antibiotic and planktonic cells which were shed from the biofilm was measured at […] to obtain the MIC. […]

Assay [2] relates to planktonic cultures of C. albicans. Description: Planktonic sensitivity (MIC, MFC) of C. albicans to antifungal agents. The format is cell-based, Candida albicans. How it is done: (§1) Biofilm susceptibility testing uses the pegged lid of the assembly, now containing biofilms formed after rocking in the tray for 24 hour. Each peg on the lid was gently washed once in […] of phosphate buffered saline solution (PBSS) in a 96-well microtiter plate (Falcon). The pegged lid was then transferred to another 96 well microtiter plate containing 2 fold dilutions antifungal agent in 200 μl of RPMI 1640 (Sigma, St. Louis, Mo.) or RPMI 1640 containing 1% DMSO (see test drug section). After the pegs were exposed to the drugs for 24 hours, the pegged lid was removed and gently rinsed twice in saline. The pegged lid was then placed on a 96 well plate containing RPMI 1640 recovery medium. The pegs were sonicated for 5 minutes (Candida spp.) or 7 minutes (Aspergillus) in an ultrasonicator to dislodge adherent cells into the recovery medium. Aliquots of 20 μl of the recovery medium were spot plated on SDA (Candida spp) or Rose Bengal Agar (A. fumigatus) to obtain the MBEC. The assembly was also used to determine the minimum inhibitory concentration (MIC) and minimum fungicidal concentration (MFC). The turbidity of the wells that contained the antibiotic and planktonic cells which were shed from the biofilm was measured at […] to obtain the MIC. A 20 μl sample from each well was also spot plated onto Sabouraud Dextrose agar (Candida spp) or Rose Bengal Agar (A. fumigatus) to obtain the MFC.
Minimum Inhibitory Concentrations (MIC) and Minimum Fungicidal Concentrations (MFC) were determined according to the guidelines of the National Committee for Clinical laboratory Standards (NCCLS). Briefly, Candida sp. were maintained on polystyrene spheres at −70° C. until plating. […]
(§2) The test wells were then incubated at 37° C. for 24 hours with the antifungal drugs. MICs for Candida were obtained after incubation by reading the turbidity at 650 nm on a microtiter plate reader (Softmax, VWR). […] MFCs were determined for Aspergillus by plating 100 μl from each well onto Rose Bengal Agar, followed by spreading with a sterile glass spreader. […]

In the next assay the test system is Candida biofilms. Description: Minimum biofilm eradication concentration assay, Candida spp. In kind it is cell-based. The settings on record: sessile (biofilm) Candida. How it is done: Biofilm formation and measurement of antimicrobial sensitivity of Candida and Aspergillus biofilms were performed using an assembly of the present invention. The device features a microtliter plate lid with 96 pegs or projections distributed on the lid. Each peg provided the surface for microorganism to adhere, colonize and form a uniform biofilm. The pegs fit precisely into the wells of a standard 96-well microtiter plate. The lid was used in conjunction with a base having special troughs for growing, washing, and incubating fungi. Colonies of Candida sp. were picked from 24 hour cultures on Sabouraud Dextrose agar (SDA) (BBL Microbiological Systems, Cockeysville, Md.) and placed into Mueller-Hinton Broth (MHB) (Difco Laboratories, Detroit Mich.) such that the suspension matched a McFarland standard of 1.0. This suspension was then diluted 1:30 in MHB, and 25 ml were pipetted into the trough chamber of the base. The closed assembly (lid with pegs positioned on the base) was placed on a Hoeffer Red Rocker (VWR, Scientific) set to rock the plates 3.5 cycles per minute in a 37° C. incubator. C. albicans and C. tropicalis were incubated aerobically, while C. glabrata was incubated in 10% CO2. It was determined in preliminary experiments that C. glabrata required 10% CO2 atmosphere for biofilms to form.
as §1
Drugs tested. […]

Assay [3] deals with invasive pulmonary, sinus and cerebral aspergillosis. The note with it: cited from earlier work.
Assay [4] relates to Staphylococcus aureus (Staph) biofilm. Description: MBEC assay, Staph biofilms exposed to antibiotics and combinations (Example 5). The note with it: number of the 12 isolates from device associated infections that are resistant; 24 hours exposure. In kind it is cell-based.
In the next assay the test system is P. aeruginosa biofilm. Description: P. aeruginosa biofilm assay kit, biofilm MBEC read on recovery plate (Example 8). The settings on record: challenge 35° C. for 24 hours; recovery 20 to 24 hours; breakpoint concentrations. The format is cell-based, Pseudomonas aeruginosa.
The subject of assay [5] is Staphylococcus aureus planktonic forms. The assay can be described thus: Staphylococcus test plate, planktonic sensitivity (Example 9). The settings on record: figure in the label = antibiotic concentration, breakpoint concentrations. In kind it is cell-based.
The subject of assay [6] is Pseudomonas aeruginosa (Ps) planktonic bacteria. Description: MBEC assay, Ps planktonic bacteria exposed to antibiotics and combinations (Example 5). The format is cell-based. The note with it: number of the 12 isolates from Cystic Fibrosis patients that are resistant; 24 hours exposure.
Assay [7] concerns Staphylococcus aureus biofilm. Description: Staphylococcus test plate, biofilm sensitivity (Example 9). The note with it: figure in the label = antibiotic concentration, breakpoint concentrations. The format is cell-based.
In assay [8] the test system is Staphylococcus aureus (Staph) planktonic bacteria. Description: MBEC assay, Staph planktonic bacteria exposed to antibiotics and combinations (Example 5). The format is cell-based. The note with it: number of the 12 isolates from device associated infections that are resistant; 24 hours exposure.
Assay [9] relates to Pseudomonas aeruginosa (Ps) biofilm. Description: MBEC assay, Ps biofilms exposed to antibiotics and combinations (Example 5). The format is cell-based. The settings on record: number of the 12 isolates from Cystic Fibrosis patients that are resistant; 24 hours exposure.
The test system of assay [10] is P. aeruginosa planktonic bacteria shed from the biofilm. Description: P. aeruginosa biofilm assay kit, planktonic MIC read on challenge plate (Example 8). The format is cell-based, Pseudomonas aeruginosa. The note with it: challenge 35° C. for 24 hours; breakpoint concentrations.
Assay [11] relates to C. tropicalis planktonic cells. The assay can be described thus: Planktonic sensitivity (MIC) of C. tropicalis to antifungal agents. The settings on record: C. tropicalis strain tested. The format is cell-based, Candida tropicalis. How it is done: Biofilm susceptibility testing uses the pegged lid of the assembly, now containing biofilms formed after rocking in the tray for 24 hour. Each peg on the lid was gently washed once in […] of phosphate buffered saline solution (PBSS) in a 96-well microtiter plate (Falcon). The pegged lid was then transferred to another 96 well microtiter plate containing 2 fold dilutions antifungal agent in 200 μl of RPMI 1640 (Sigma, St. Louis, Mo.) or RPMI 1640 containing 1% DMSO (see test drug section). After the pegs were exposed to the drugs for 24 hours, the pegged lid was removed and gently rinsed twice in saline. The pegged lid was then placed on a 96 well plate containing RPMI 1640 recovery medium. […] The turbidity of the wells that contained the antibiotic and planktonic cells which were shed from the biofilm was measured at […] to obtain the MIC. […]
Minimum Inhibitory Concentrations (MIC) and Minimum Fungicidal Concentrations (MFC) were determined according to the guidelines of the National Committee for Clinical laboratory Standards (NCCLS). […]
as §2

The mark [12] stands for this setting: planktonic cultures of C. albicans, 24 hours.

“Also recorded” adds a separate entry of the source. Where two headings read alike, the source gives them in different places.

As to `C[C@@H]1[C@H](O)[C@@H](C)/C=C/C=C/C=C/C=C/C=C/C=C/C=C/[C@H](O[C@@H]2O[C@H](C)[C@@H](O)[C@H](N)[C@@H]2O)C[C@@H]2O[C@](O)(C[C@@H](O)C[C@@H](O)[C@H](O)CC[C@@H](O)C[C@@H](O)CC(=O)O[C@H]1C)C[C@H](O)[C@H]2C(=O)O` [amphotericin B, Amphotericin B], in assay [1], the “average concentration required to kill biofilm cells (MBEC)” value turned out to be 12 µg/mL. The “average MFC” value in assay [2] (setting [12]) stood at 0.02 µg/mL. Also, the “average MIC” value in assay [2] (setting [12]) came to 0.09 µg/mL. The “effectiveness against Candida growing as a biofilm” value (“effectiveness” below) in the assay on Candida biofilms is on record as “most effective”. Also, the “crude mortality rate of treated patients” value in [3] (invasive cerebral aspergillosis) was 99%; in assay [3] (invasive pulmonary aspergillosis), 86%; in assay [3] (invasive sinus aspergillosis), 66%.

With gentamicin [GM], the “Staph resistance to individual antibiotics and antibiotic combinations, Biofilm” value in assay [4] turned out to be 10. Further, the “Number of P. aeruginosa isolates resistant to individual antibiotics and antibiotic combinations, Biofilm” value with P. aeruginosa biofilm is 12. Also, the “Number of Staphylococcus aureus isolates resistant to individual antibiotics and antibiotic combinations, Planktonic” value was 4 in assay [5] (listed as GM2) and 3 in [5] (listed as GM4). In addition, the “Ps resistance to individual antibiotics and antibiotic combinations, Planktonic” value in [6] was determined as 8. Further, the “Number of Staphylococcus aureus isolates resistant to individual antibiotics and antibiotic combinations, Biofilm” value in [7] (listed as GM2) came out at 11; in [7] (listed as GM4), 10. Besides, the “Staph resistance to individual antibiotics and antibiotic combinations, Planktonic” value in assay [8] came to 6. In assay [9], the “Ps resistance to individual antibiotics and antibiotic combinations, Biofilm” value amounted to 12. Also, in assay [10], the “Number of P. aeruginosa isolates resistant to individual antibiotics and antibiotic combinations, Planktonic” value came to 8.

Turning to Polymyxin B, the “effectiveness” value in the assay on Candida biofilms was “ineffective”.

Take `C[C@@H]1[C@H](O)[C@@H](C)/C=C/C=C/CC/C=C/C=C/C=C/C=C/C(O[C@H]2O[C@H](C)[C@@H](O)[C@H](N)[C@@H]2O)CC2O[C@](O)(CC(O)C(O)CCC(O)CC(O)CC(O)CC(=O)O[C@H]1C)CC(O)C2C(=O)O` (some centres unmarked) [nystatin, Nystatin]: in the assay on Candida biofilms, the “effectiveness” value is reported as “effective; also recorded: most effective”.

Consider Colistin [CLO], for which the “Number of P. aeruginosa isolates resistant to individual antibiotics and antibiotic combinations, Biofilm” value in the assay with P. aeruginosa biofilm is 12. Besides, the “Ps resistance to individual antibiotics and antibiotic combinations, Planktonic” value in assay [6] was 2. In assay [9], the “Ps resistance to individual antibiotics and antibiotic combinations, Biofilm” value stood at 12. Moreover, in [10], the “Number of P. aeruginosa isolates resistant to individual antibiotics and antibiotic combinations, Planktonic” value turned out to be 2.

Regarding `OC(Cn1cncn1)(Cn1cncn1)c1ccc(F)cc1F` [fluconazole, Fluconazole], the “classification by MIC criterion (MIC less than or equal to 8 μg/ml = susceptible)” value is “susceptible” in assay [11] and “susceptible” in [2] (C. albicans strain tested, planktonic).

For the compound `COC1=CC(=O)C[C@@H](C)[C@]12Oc1c(Cl)c(OC)cc(OC)c1C2=O` [Griseofulvin], the “effectiveness” value with Candida biofilms was “ineffective”.
